Assay results taken from patent US20220133672A1, “NOTCH INHIBITORS FOR THE TREATMENT OF VASCULAR MALFORMATIONS” (The University of North Carolina at Chapel Hill, priority 2018, published 2022).

Key:
[1] = tested on: HUVEC tube/network formation; assay: Tube formation assay in Matrigel matrix, HUVEC; format: cell-based, human; conditions: for inhibition of angiogenesis in Notch-expressing HUVECs / number of branch points per field: HUVEC; for number of branch points per field: all concentrations (2-20 μM); for network formation by HUVEC: lowest concentration (2 μM), 24 hrs
Procedure: Tube formation assay—This assay was performed based on the protocol by Arnaoutova and Kleinman, 2010^37.

[2] = tested on: HUVEC migration; assay: Scratch migration assay, HUVEC; format: cell-based, human
Procedure: (§1) Scratch migration assay—Migration assay was performed as per Liang et al., 2007^36, HUVECs and hLECs were grown to confluence in 24 well dishes, and then scratched with a 200 μL pipette tip. […] Four fields per well were imaged at T=0 hrs and at T=24 hrs post-scratch or T=72 hrs for HUVECs and hLECs respectively using an Olympus IX-81 inverted microscope equipped with a QImaging Retiga 4000R camera at 4× magnification. The percent change in migration was calculated by measuring the open area of the scratch at the above mentioned time-points (ImageJ). Results shown are representative of four independent experiments with HUVECs and three for hLECs.

[3] = tested on: human lymphatic endothelial cells (hLECs); assay: Cell viability (trypan blue, Countess automated cell counter), hLEC; format: cell-based; conditions: for change of hLEC viability at concentrations less than 20 μM: concentrations lower than 20 μM, vs untreated controls
Procedure: (§2) Dermal human lymphatic endothelial cells (hLECs) from human neonates (HMVEC-dLyNeo-Der, Lonza CC-2812) and human umbilical venous endothelial cells (HUVEC, Lonza CC-2517) were used for in vitro assays (below) within 8 passages and maintained in EGM-2MV bullet kit (Lonza CC3202) and EGM bullet kit media respectively.
(§3) Cell viability: To examine the effect of GSI on cell viability, hLEC and HUVEC cultures were incubated with effects of graded concentrations [2, 4, 6, 8, 10, 20 μM] of DAPT (Selleckchem, S2215) or RO4909297 (Selleckchem, S1575) [2-20 μM] for 24-72 hours. The percentage of viable cells was determined using the Countess automated cell counter (Thermofisher, C10227). Briefly, 80-90% confluent HUVEC and hLEC cultures were trypsinized, washed, and 10 μL of cell sample was mixed with an equal amount of 0.4% trypan blue stain and loaded onto the counting chamber.

[4] = tested on: hLEC migration; assay: Scratch migration assay, hLEC; format: cell-based, human
Procedure: as §1

[5] = tested on: Notch target gene Hey1 in HUVEC; assay: Quantitative RT-PCR of Notch target gene Hey1 in HUVEC; format: cell-based, human; conditions: 24 hrs post treatment
Procedure: RNA was extracted from cultured HUVEC or hLEC cells either 24 hrs or 72 hrs post treatment respectively using TRIzol reagent (Ambion 15596026) followed by DNase (Promega M6101) treatment and cDNA prepared using iScript (BioRad 170-8890). Quantitative RT-PCR was done on StepOnePlus (ABI) using TaqMan Gene Expression Master Mix (ThermoFisher Scientific 4369016). Gene expression was assessed using human Single-tube assays (Thermo Fisher Scientific/Applied Biosystems): GAPDH (4310884E), ACTB (Hs99999903_m1) and HEY1 (Hs01114113_m1). Comparative ΔΔCT method was used to analyze relative gene expression with ExpressionSuite Software (Thermo Fisher Scientific). Expression was normalized to housekeeping controls GAPDH and ACTB.

[6] = Cell viability (trypan blue, Countess automated cell counter), hLEC; format: cell-based, human; conditions: human; 20 μM, hLEC; read-out: reduction of hLEC viability
Procedure: as §2, §3

SMILES	inhibition of angiogenesis in Notch-expressing HUVECs [1]	number of branch points per field [1]	network formation by HUVEC [1]	HUVEC migration reduced to ([2]; 8 μM, 24 hrs post-scratch)	reduction of hLEC viability ([3]; 20 μM, hLEC) [%]	change of hLEC viability at concentrations less than 20 μM [3]	hLEC migration reduced to ([4]; 8 μM, hLEC, 72 hrs post-scratch)	lowest concentration that downregulated Hey1 expression in HUVECs [5] [µM]	effectiveness on HUVEC migration compared with 8 μM DAPT ([2]; 6 μM)	cytotoxicity at 20 μM [6] [%]	effectiveness on hLEC migration compared with 8 μM DAPT ([4]; 6 μM, hLEC)	reduction of migration in hLECs ([4]; at lower concentrations compared to HUVECs)
C[C@H](NC(=O)Cc1cc(F)cc(F)c1)C(=O)N[C@H](C(=O)OC(C)(C)C)c1ccccc1 [DAPT, N-[N-(3,5-difluorophenacetyl-L-alanyl)]-S-phenylglycine t-butyl ester]	effective in inhibiting angiogenesis	significantly reduced	dramatically reduced	about 35%	~30	without significant changes	about 50%	4				
CC(C)(C(=O)NCC(F)(F)C(F)(F)F)C(=O)N[C@@H]1C(=O)Nc2ccccc2-c2ccccc21 [RO4929097, 2,2-Dimethyl-N-[(7S)-6-oxo-6,7-dihydro-5H-dibenzo[b,d]azepin-7-yl]-N′-(2,2,3,3,3-pentafluoropropyl)malonamide]	effective in inhibiting angiogenesis	significantly reduced	dramatically reduced			without significant changes		2	more effective	~30	more effective	greater than 50%
